# Source: patent US20110294728A1, “Antiviral Polypeptides” (priority 2008, published 2011)
# Where a SMILES comes first, the peptide text is derived from it. Bridges are numbered along the chain shown (N, C = ends). Where no end group is shown, it is not given here.
# Key:
# [1] = target: T1, HIV-1 RT (Human immunodeficiency virus type 1 group M subtype B, UniProt P03366); experiment: biochemical
# T1 construct: The heterodimeric p66/p51 RT was eluted with an imidazole gradient; p66 and p51 derived from p66 by proteolytic cleavage of the C-terminal RNAse H domain; made in house; host or cells: E. coli (M15 for the His-tagged subunits)
# Experimental: RNA-dependent-DNA RT-polymerase activity was measured in a standard reaction assay using poly(rA)-(dT)15 as template/primer as described in Restle et al. (1990). Ten microliters of reverse transcriptase (RT) at 20 nM was incubated at 37° C. for 30 min with 20 μL of reaction buffer (50 mM Tris, pH 8.0, 80 mM KCl, 6 mM MgCl2, 5 mM DTT, 0.15 μM poly(rA-dT), 15 μM dTTP, 0.3 μCi 3H-dTTP). For peptide evaluation, HIV-1 RT was incubated with increasing concentrations of peptide inhibitors for […], and polymerase reaction was initiated by adding reaction buffer. Reactions were stopped by precipitation of nucleic acids with 5 ml of 20% trichloroacetic acid (TCA) solution for 2 h on ice, then filtered using a multiwell-sample collector (Millipore), and washed with 5% TCA solution. Filters were dried at 55° C. for 30 min and radionucleotide incorporation was determined by liquid scintillation spectrometry.
# A series of peptides have been derived from Pep-A sequence (SEQ ID NO: 28), which is derived from HIV-1 reverse transcriptase. First, P1 peptide (SEQ ID NO: 1) was obtained by removing the N-terminal arginine of Pep-A. Then, additional peptides were generated by performing an alanine scan on P1. P1-derived peptides were evaluated using a standard polymerase RT assay. Reported data correspond to the mean of three separate experiments.
# [2] = test system: HIV-1-LAI strain; details: for IC50, block of viral proliferation (in words): peptide associated with Pep-1
# Experimental: The anti-HIV activities of the peptides were assayed according to the methods described in Roisin et al. (2004). Phytohemagglutinin-P(PHA-P)-activated peripheral blood mononuclear cells (PBMC) treated by increasing concentrations of peptide (from 100 to 0.1 nM), one hour later, were infected with hundred 50% tissue culture infectious doses (TCID50) per 100,000 cells of the HIV-1-LAI strain (Barre-Sinoussi et al., 1983). This virus was amplified in vitro on PHA-P-activated PBMC. Viral stock was titrated using PHA-P-activated PBMC, and 50% TCID50 were calculated using Kärber's formula (Kärber, 1931). Samples were maintained throughout the culture, and cell supernatants were collected at day 7 post-infection and stored at −20° C. Viral replication was measured by quantifying reverse transcriptase (RT) activity in cell culture supernatants. In parallel, cytotoxicity of the compounds was evaluated in uninfected PHA-P-activated PBMC by colorimetric 3-(4-5 dimethylthiazol-2-yl)2,5diphenyl tetrazolium bromite (MTT) assay on day 7 (as described in Mossmann, 1983). Experiments were performed in triplicate and repeated with another blood donor. Data analyses were performed using SofiMax® Pro 4.6 microcomputer software: percent of inhibition of RT activity or of cell viability were plotted vs concentration and fitted with quadratic curves; 50% effective doses (ED50) and cytotoxic doses (CD50) were calculated.
# In order to avoid any limitation due to the poor ability of peptides to cross cellular membranes, they were associated to the peptide-based nanoparticle delivery system Pep-1 (SEQ ID NO: 29), at a 1/10 molar ratio.
# [3] = target: T2, HIV-1 integrase (Human immunodeficiency virus type 1 group M subtype B, UniProt P04585); experiment: biochemical
# T2 construct: Integrase is a 32 kDA viral protein that is biologically active under a multimeric form
# Experimental: The simultaneous measurement of integrase-DNA interaction and subsequent 3′-processing activity by steady-state fluorescence anisotropy was performed as described in Guiot et al. (2006). […] After the initial DNA-binding step (performed at 25° C.), the 3′-processing activity was measured at 37° C. by fixed-time experiments: The reaction was stopped at varying times by adding SDS (0.25% final) which disrupts all IN-DNA complexes in the sample. The IN-mediated cleavage of the terminal GT dinucleotide (labeled by fluorescein on the 3′-end) leads to a significant decrease of r as compared to the r value corresponding to the fluorescein-labeled unprocessed DNA substrate. The fraction of released dinucleotide is calculated by using Eq. (1): […]
# [4] = target: T2, HIV-1 integrase; experiment: biochemical; assay type: binding
# Experimental: Fluorescein-labeled peptides (40 nM) were mixed with varying concentrations of integrase in 20 mM Tris pH 7.2, 50 mM NaCl, 10 mM MgCl2, and the r values were recorded.
# Effect of the different peptides on the integrase (IN) activity, DNA binding and IN/DNA dissociation were evaluated as described in Example III.1 above, using fluorescence polarization and anisotropy measurements. Binding constant of the peptide for IN was determined by steady state fluorescence and anisotropy.
Molecule,Ki [1] [µM],other results
GTKALTEVIPLAEEAE [Peptide P13],10.2 ± 2.5,–
GTKAATEVIPLTEEAE [Peptide P6],5.7,"IC50, block of viral proliferation (in words) [2]: low μM range"
CC[C@H](C)[C@H](NC(=O)[C@@H](NC(=O)[C@H](CCC(=O)O)NC(=O)[C@@H](NC(=O)[C@H](CC(C)C)NC(=O)[C@H](C)NC(=O)[C@H](CCCCN)NC(=O)[C@@H](NC(=O)CN)[C@@H](C)O)[C@@H](C)O)C(C)C)C(=O)N1CCC[C@H]1C(=O)N[C@@H](CC(C)C)C(=O)N[C@H](C(=O)N[C@@H](C)C(=O)N[C@@H](CCC(=O)O)C(=O)N[C@@H](C)C(=O)N[C@@H](CCC(=O)O)C(=O)O)[C@@H](C)O [Peptide P14],14 ± 3,–
"CC[C@H](C)[C@H](NC(=O)[C@@H](NC(=O)[C@H](CCC(=O)O)NC(=O)[C@@H](NC(=O)[C@H](CC(C)C)NC(=O)[C@H](C)NC(=O)[C@H](CCCCN)NC(=O)[C@@H](NC(=O)CNC(=O)[C@@H](N)CCCNC(=N)N)[C@@H](C)O)[C@@H](C)O)C(C)C)C(=O)N1CCC[C@H]1C(=O)N[C@@H](CC(C)C)C(=O)N[C@H](C(=O)N[C@@H](CCC(=O)O)C(=O)N[C@@H](CCC(=O)O)C(=O)N[C@@H](C)C(=O)N[C@@H](CCC(=O)O)C(=O)O)[C@@H](C)O [Pep-A, reference compound]",35,antiviral activity (in words) ([2]; associated to Pep-1): no antiviral activity
GTKAATEVIPLT [Peptide P19],49 ± 9,–
GTKALTEVIPATEEAE [Peptide P12],22 ± 3,–
CC(C)C[C@@H]1NC(=O)[C@H](Cc2c[nH]c3ccccc23)NC(=O)[C@H](CCCCN)NC(=O)[C@H]([C@@H](C)O)NC(=O)CNC(=O)[C@@H](N)CSSC[C@@H](C(=O)O)NC(=O)[C@H](CC(C)C)NC(=O)[C@@H]2CCCN2C(=O)[C@H](Cc2c[nH]c3ccccc23)NC(=O)[C@H](C(C)C)NC(=O)[C@H](CCC(=O)O)NC(=O)[C@H]([C@@H](C)O)NC1=O [Peptide P16C1] (H-CGTKWLTEVWPLC-OH; disulfide 1-13),32.1,"Ki [3]: 4.3 µM; EC50 ([2]; read-out: EC50 HIV-1 lai, Table 10): 0.0025 µM; Kd [4]: 0.09 µM"
GTKWATEWAPLTAEAE [Peptide P28],2 ± 0.6,–
GTKALTEVIALTEEAE [Peptide P11],7,"IC50, block of viral proliferation (in words) [2]: low μM range"
CC[C@H](C)[C@H](NC(=O)[C@@H](NC(=O)[C@H](CCC(=O)O)NC(=O)[C@@H](NC(=O)[C@H](CC(C)C)NC(=O)[C@H](C)NC(=O)[C@H](CCCCN)NC(=O)[C@@H](NC(=O)CN)[C@@H](C)O)[C@@H](C)O)C(C)C)C(=O)N1CCC[C@H]1C(=O)N[C@@H](CC(C)C)C(=O)N[C@H](C(=O)O)[C@@H](C)O [Peptide P18],53 ± 12,inhibition of RT polymerase activity (in words) [1]: does not inhibit RT polymerase activity
GTKALTEAIPLTEEAE [Peptide P9],15 ± 7.3,–
CC[C@H](C)[C@H](NC(=O)[C@@H](NC(=O)[C@H](CCC(=O)O)NC(=O)[C@@H](NC(=O)[C@H](CC(C)C)NC(=O)[C@H](C)NC(=O)[C@H](CCCCN)NC(=O)[C@H](C)NC(=O)CN)[C@@H](C)O)C(C)C)C(=O)N1CCC[C@H]1C(=O)N[C@@H](CC(C)C)C(=O)N[C@H](C(=O)N[C@@H](CCC(=O)O)C(=O)N[C@@H](CCC(=O)O)C(=O)N[C@@H](C)C(=O)N[C@@H](CCC(=O)O)C(=O)O)[C@@H](C)O [Peptide P3],10.3 ± 2.1,–
CC[C@H](C)[C@H](NC(=O)[C@@H](NC(=O)[C@H](CCC(=O)O)NC(=O)[C@@H](NC(=O)[C@H](CC(C)C)NC(=O)CNC(=O)[C@H](CCCCN)NC(=O)[C@@H](NC(=O)CN)[C@@H](C)O)[C@@H](C)O)C(C)C)C(=O)N1CCC[C@H]1C(=O)N[C@@H](CC(C)C)C(=O)N[C@H](C(=O)N[C@@H](CCC(=O)O)C(=O)N[C@@H](CCC(=O)O)C(=O)N[C@@H](C)C(=O)N[C@@H](CCC(=O)O)C(=O)O)[C@@H](C)O [Peptide P5],20 ± 3.7,–
GTKAWTEVWPL [Peptide P17],35 ± 11,reduction of efficiency (higher Ki) relative to PAW ([1]; relative to PAW): 50 fold
GTKALAEVIPLTEEAE [Peptide P7],13.5 ± 2.1,–
CC[C@H](C)[C@H](NC(=O)[C@@H](NC(=O)[C@H](CCC(=O)O)NC(=O)[C@@H](NC(=O)[C@H](CC(C)C)NC(=O)[C@H](C)NC(=O)[C@H](CCCCN)NC(=O)[C@@H](NC(=O)CN)[C@@H](C)O)[C@@H](C)O)C(C)C)C(=O)N1CCC[C@H]1C(=O)N[C@@H](CC(C)C)C(=O)N[C@H](C(=O)N[C@@H](CCC(=O)O)C(=O)N[C@@H](C)C(=O)N[C@@H](C)C(=O)N[C@@H](CCC(=O)O)C(=O)O)[C@@H](C)O [Peptide P15],14 ± 2.2,–
GTKALTEVAPLTEEAE [Peptide P10],7.3,"IC50, block of viral proliferation (in words) [2]: low μM range"
GAKTETLVIPETELEA [Pscramble],61 ± 12,–
CC[C@H](C)[C@H](NC(=O)[C@@H](NC(=O)[C@H](CCC(=O)O)NC(=O)[C@@H](NC(=O)[C@H](CC(C)C)NC(=O)[C@H](C)NC(=O)[C@H](C)NC(=O)[C@@H](NC(=O)CN)[C@@H](C)O)[C@@H](C)O)C(C)C)C(=O)N1CCC[C@H]1C(=O)N[C@@H](CC(C)C)C(=O)N[C@H](C(=O)N[C@@H](CCC(=O)O)C(=O)N[C@@H](CCC(=O)O)C(=O)N[C@@H](C)C(=O)N[C@@H](CCC(=O)O)C(=O)O)[C@@H](C)O [Peptide P4],15 ± 2.9,–
KWLTEWIPLTAE [Peptide P29],1 ± 0.4,–
CC[C@H](C)[C@H](NC(=O)[C@@H](NC(=O)[C@H](CCC(=O)O)NC(=O)[C@@H](NC(=O)[C@H](CC(C)C)NC(=O)[C@H](C)NC(=O)[C@H](CCCCN)NC(=O)[C@@H](NC(=O)[C@H](C)N)[C@@H](C)O)[C@@H](C)O)C(C)C)C(=O)N1CCC[C@H]1C(=O)N[C@@H](CC(C)C)C(=O)N[C@H](C(=O)N[C@@H](CCC(=O)O)C(=O)N[C@@H](CCC(=O)O)C(=O)N[C@@H](C)C(=O)N[C@@H](CCC(=O)O)C(=O)O)[C@@H](C)O [Peptide P2],28 ± 11,–
CC[C@H](C)[C@H](NC(=O)[C@@H](NC(=O)[C@H](CCC(=O)O)NC(=O)[C@@H](NC(=O)[C@H](CC(C)C)NC(=O)[C@H](C)NC(=O)[C@H](CCCCN)NC(=O)[C@@H](NC(=O)CN)[C@@H](C)O)[C@@H](C)O)C(C)C)C(=O)N1CCC[C@H]1C(=O)N[C@@H](CC(C)C)C(=O)N[C@H](C(=O)N[C@@H](CCC(=O)O)C(=O)N[C@@H](CCC(=O)O)C(=O)N[C@@H](C)C(=O)N[C@@H](CCC(=O)O)C(=O)O)[C@@H](C)O [Peptide P1],7.5,"increase in potency to inhibit RT polymerase over Pep-A ([1]; relative to Pep-A): 5 fold; IC50, block of viral proliferation (in words) [2]: low μM range"
